Data reported in ChEMBL document CHEMBL5030549, “Design, synthesis and biological evaluation of new thiazole scaffolds as potential TRPM8 antagonists” (Bioorg Med Chem Lett, 2021).
Calls of active or inactive are those of the source. The rule behind the calls is not given here.

Key:
[1] = target: Transient receptor potential cation channel subfamily V member 1 (Homo sapiens) (UniProt Q8NER1); experiment: Antagonist activity at human TRPV1 inhibition of capsaicin-induced channel activation at <= 30 uM; conditions: dose microM <=30
Chain of Transient receptor potential cation channel subfamily V member 1 (Homo sapiens) (Q8NER1 whole entry): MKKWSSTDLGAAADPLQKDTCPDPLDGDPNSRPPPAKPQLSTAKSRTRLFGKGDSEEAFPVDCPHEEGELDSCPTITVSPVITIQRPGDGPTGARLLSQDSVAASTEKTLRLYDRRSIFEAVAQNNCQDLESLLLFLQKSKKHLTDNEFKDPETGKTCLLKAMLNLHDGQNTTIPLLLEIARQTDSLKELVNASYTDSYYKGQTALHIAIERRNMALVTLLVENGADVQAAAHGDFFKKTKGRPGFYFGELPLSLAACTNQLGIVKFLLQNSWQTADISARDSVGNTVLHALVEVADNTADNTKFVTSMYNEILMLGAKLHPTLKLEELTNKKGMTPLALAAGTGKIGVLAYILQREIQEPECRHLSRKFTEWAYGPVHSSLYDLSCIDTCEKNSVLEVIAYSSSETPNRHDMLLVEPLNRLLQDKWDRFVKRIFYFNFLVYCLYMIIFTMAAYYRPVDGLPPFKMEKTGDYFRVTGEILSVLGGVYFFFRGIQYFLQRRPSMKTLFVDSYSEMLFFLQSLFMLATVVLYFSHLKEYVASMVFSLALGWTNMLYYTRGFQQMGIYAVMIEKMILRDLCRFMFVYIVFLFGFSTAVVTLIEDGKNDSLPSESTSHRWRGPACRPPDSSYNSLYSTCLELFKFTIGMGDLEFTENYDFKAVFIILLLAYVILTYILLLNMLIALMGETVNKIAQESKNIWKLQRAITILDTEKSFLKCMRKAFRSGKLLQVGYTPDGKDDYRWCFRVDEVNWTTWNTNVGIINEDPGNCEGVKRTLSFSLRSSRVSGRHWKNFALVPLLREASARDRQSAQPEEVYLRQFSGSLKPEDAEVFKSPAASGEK

HepG2 = experiment: Cytotoxicity against human HepG2 cells assessed as reduction in cell viability at 100 uM; format: cell-based; conditions: hepg2, 100 µM
[2] = target: T1, Transient receptor potential cation channel subfamily M member 8 (Homo sapiens, UniProt Q7Z2W7); experiment: Antagonist activity at recombinant human TRPM8 transfected in HEK293 cells assessed as assessed as inhibition of icilin-induced intracellular calcium flux; format: cell-based
Target sequence in this assay (Q7Z2W7 whole entry): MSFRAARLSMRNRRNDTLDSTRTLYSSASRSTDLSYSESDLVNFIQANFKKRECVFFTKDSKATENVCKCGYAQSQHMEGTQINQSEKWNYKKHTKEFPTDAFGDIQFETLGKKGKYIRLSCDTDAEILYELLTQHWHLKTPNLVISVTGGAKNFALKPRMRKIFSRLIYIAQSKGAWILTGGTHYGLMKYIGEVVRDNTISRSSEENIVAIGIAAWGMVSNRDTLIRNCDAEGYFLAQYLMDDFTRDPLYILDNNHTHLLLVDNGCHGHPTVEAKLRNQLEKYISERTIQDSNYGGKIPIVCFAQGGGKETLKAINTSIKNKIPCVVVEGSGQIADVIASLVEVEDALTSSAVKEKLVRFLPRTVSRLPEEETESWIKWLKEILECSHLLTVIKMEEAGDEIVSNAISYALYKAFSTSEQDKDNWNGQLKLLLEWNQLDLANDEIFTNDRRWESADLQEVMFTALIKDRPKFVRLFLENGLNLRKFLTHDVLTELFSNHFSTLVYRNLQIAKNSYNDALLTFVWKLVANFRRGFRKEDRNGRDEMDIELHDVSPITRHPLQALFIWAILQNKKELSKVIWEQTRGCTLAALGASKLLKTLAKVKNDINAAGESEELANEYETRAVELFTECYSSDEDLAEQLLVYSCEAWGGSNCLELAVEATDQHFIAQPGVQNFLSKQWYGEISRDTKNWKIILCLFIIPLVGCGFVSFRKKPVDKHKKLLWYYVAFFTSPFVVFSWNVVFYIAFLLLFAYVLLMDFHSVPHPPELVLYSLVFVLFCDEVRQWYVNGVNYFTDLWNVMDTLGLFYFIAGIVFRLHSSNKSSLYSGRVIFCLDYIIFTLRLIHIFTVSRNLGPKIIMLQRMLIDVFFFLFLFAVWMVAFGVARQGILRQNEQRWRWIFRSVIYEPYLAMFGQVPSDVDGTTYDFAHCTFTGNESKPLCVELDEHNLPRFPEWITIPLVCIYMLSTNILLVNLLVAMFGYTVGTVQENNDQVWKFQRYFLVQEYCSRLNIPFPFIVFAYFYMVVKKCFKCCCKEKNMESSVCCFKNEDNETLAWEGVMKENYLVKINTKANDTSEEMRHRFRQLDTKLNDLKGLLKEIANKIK

[3] = Metabolic stability in human liver microsomes assessed as intrinsic clearance in presence of NADPH; format: ADME, Microsome
[4] = target: T1, Transient receptor potential cation channel subfamily M member 8; experiment: Antagonist activity at recombinant human TRPM8 transfected in HEK293 cells assessed as assessed as inhibition of icilin-induced intracellular calcium flux at 0.5 uM relative to control; format: cell-based; conditions: filed as antagonist
Target sequence in this assay (Q7Z2W7 whole entry, looked up): as the sequence (Q7Z2W7 whole entry) above

[5] = Metabolic stability in human liver microsomes assessed as half life in presence of NADPH; format: ADME, Microsome

Activity [1] | SMILES | other results
inactive | CCOC(=O)CCCc1[nH]nnc1-c1nc(-c2cccc(F)c2)sc1C(=O)OCC | 
inactive | CCOC(=O)c1sc(-c2cccc(F)c2)nc1C#CCCCC(=O)O | Activity (HepG2): Non-Toxic; IC50 [2]: 4060 nM; CLH [3]: 0.13 mL/min/g
inactive | CCOC(=O)CCCC#Cc1nc(-c2cccc(F)c2)sc1C(=O)OCC | 
inactive | CCOC(=O)/C=C/Oc1nc(-c2ccc(C)cc2)sc1C(=O)OCC | IC50 [2]: 1130 nM; half-life [5]: < 10 min

The next lines start with the molecule.

SMILES | Activity [1] | other results
O=C(O)CCCc1cc2nc(-c3cccc(F)c3)sc2c(=O)[nH]1 | inactive | 
COc1cc(CN(CCN)C(=O)c2cccs2)ccc1OCc1ccccc1 |  | inhibition [4]: 98.3%
O=C(O)CCCc1cc2nc(-c3cccc(F)c3)sc2c(=O)o1 | inactive | 
